Measured values from ChEMBL document CHEMBL4420076, “Amylin and calcitonin receptor agonist” (2017).
Numbered stars: 1 amine (or outer) side, 2 acyl side, 3 side chain; on linkers, the order of the positions; unused ones are H or OH. Peptide text beside a SMILES is read from it. * marks the point of attachment. C20 diacid = O=C(O)CCCCCCCCCCCCCCCCCCC(=O)*; C18 diacid = O=C(O)CCCCCCCCCCCCCCCCC(=O)*; γGlu = O=C(O)[C@H](CCC(=O)[*:2])N[*:1]

Legend:
Calcitonin receptor [1] = molecular target: T1, Calcitonin receptor (Homo sapiens, UniProt P30988); assay: Agonist activity at human calcitonin receptor expressed in BHK570 cells assessed as increase in intracellular cAMP concentration incubated for 3 hrs in absence of albumin by CRE luciferase reporter gene assay; assay type: functional, cell-based
T1 sequence (P30988 whole entry): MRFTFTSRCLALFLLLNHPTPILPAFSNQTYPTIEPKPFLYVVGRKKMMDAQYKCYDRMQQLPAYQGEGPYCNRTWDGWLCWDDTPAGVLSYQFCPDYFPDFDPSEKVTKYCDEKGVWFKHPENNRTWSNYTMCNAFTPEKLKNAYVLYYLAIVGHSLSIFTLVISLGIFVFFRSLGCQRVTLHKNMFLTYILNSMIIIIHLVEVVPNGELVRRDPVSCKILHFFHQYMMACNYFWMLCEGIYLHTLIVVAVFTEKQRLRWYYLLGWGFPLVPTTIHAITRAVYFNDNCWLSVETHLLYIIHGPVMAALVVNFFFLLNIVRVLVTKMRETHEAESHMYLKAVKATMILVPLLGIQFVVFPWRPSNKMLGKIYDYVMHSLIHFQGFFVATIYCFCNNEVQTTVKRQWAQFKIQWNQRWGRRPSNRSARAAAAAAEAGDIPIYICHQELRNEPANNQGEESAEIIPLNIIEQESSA

Calcitonin receptor [2] = molecular target: T1, Calcitonin receptor; assay: Agonist activity at human calcitonin receptor expressed in BHK570 cells assessed as increase in intracellular cAMP concentration incubated for 3 hrs in presence of 10% FBS by CRE luciferase reporter gene assay; assay type: functional, cell-based
[3] = Solubility in 100 mM glycylglycine buffer at pH 3.0 incubated for 18 hrs by UPLC analysis; assay type: physicochemical
[4] = Solubility in 100 mM glycylglycine buffer at pH 4.0 incubated for 18 hrs by UPLC analysis; assay type: physicochemical
[5] = Solubility in 100 mM bistrispropane buffer at pH 6.0 incubated for 18 hrs by UPLC analysis; assay type: physicochemical
[6] = Solubility in 100 mM glycylglycine buffer at pH 5.0 incubated for 18 hrs by UPLC analysis; assay type: physicochemical
[7] = Solubility in 100 mM bistrispropane buffer at pH 6.5 incubated for 18 hrs by UPLC analysis; assay type: physicochemical
[8] = Solubility in 100 mM bistrispropane buffer at pH 7.0 incubated for 18 hrs by UPLC analysis; assay type: physicochemical
[9] = Solubility in 100 mM bistrispropane buffer at pH 7.5 incubated for 18 hrs by UPLC analysis; assay type: physicochemical
[10] = Solubility in 100 mM bistrispropane buffer at pH 8.0 incubated for 18 hrs by UPLC analysis; assay type: physicochemical
[11] = molecular target: T2, Amylin receptor AMY3; CALCR/RAMP3 (Homo sapiens, UniProt O60896+P30988); assay: Displacement of [125I]-labeled rat amylin from human amylin receptor expressed in BHK tkts13 whole cells co-expressing RAMP3 incubated for 60 mins by scintillation proximity assay; assay type: cell-based
T2 sequence (P30988 whole entry): T1 sequence (P30988 whole entry)
T2 sequence (O60896 whole entry): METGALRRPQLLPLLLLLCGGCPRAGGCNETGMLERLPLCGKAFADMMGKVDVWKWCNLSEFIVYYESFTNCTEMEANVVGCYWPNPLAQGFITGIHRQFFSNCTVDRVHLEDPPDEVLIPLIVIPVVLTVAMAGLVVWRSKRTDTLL

[12] = molecular target: T2, Amylin receptor AMY3; CALCR/RAMP3; assay: Agonist activity at human amylin receptor expressed in BHK570 cells co-expressing RAMP3 assessed as increase in intracellular cAMP concentration incubated for 3 hrs in absence of albumin by CRE luciferase reporter gene assay; assay type: functional, cell-based

Compound	EC50 (Calcitonin receptor [1])	EC50 (Calcitonin receptor [2])	solubility at 18 h [3]	solubility at 18 h [4]	solubility at 18 h [5]	solubility at 18 h [6]	solubility at 18 h [7]	solubility at 18 h [8]	solubility at 18 h [9]	solubility at 18 h [10]	IC50 [11]	EC50 [12]
CC(C)C[C@H](NC(=O)[C@H](C)NC(=O)[C@H](C)NC(=O)[C@@H](NC(=O)[C@H](CO)NC(=O)[C@H](CC(C)C)NC(=O)[C@H](CCC(=O)O)NC(=O)[C@H](CO)NC(=O)[C@H](C)NC(=O)CC[C@H](NC(=O)CCCCCCCCCCCCCCCCCCC(=O)O)C(=O)O)[C@@H](C)O)C(=O)NCC(=O)N[C@@H](CCCNC(=N)N)C(=O)N[C@@H](CC(C)C)C(=O)N[C@@H](CO)C(=O)N[C@@H](C)C(=O)N[C@@H](CCC(=O)O)C(=O)N[C@@H](CC(C)C)C(=O)N[C@@H](Cc1cnc[nH]1)C(=O)N[C@@H](CCC(=O)O)C(=O)N[C@@H](CC(C)C)C(=O)N[C@@H](C)C(=O)N[C@H](C(=O)N[C@@H](CC(C)C)C(=O)N1CCC[C@H]1C(=O)N[C@@H](CCCNC(=N)N)C(=O)N[C@H](C(=O)N[C@@H](CCC(=O)O)C(=O)N[C@H](C(=O)NCC(=O)N[C@H](C(=O)NCC(=O)N[C@H](C(=O)N1CCC[C@H]1C(N)=O)[C@@H](C)O)[C@@H](C)O)[C@@H](C)O)[C@@H](C)O)[C@@H](C)O ({C20 diacid-γGlu}-ASELSTAALGRLSAELHELATLPRTETGTGTP-NH2)	0.045 nM	0.056 nM	≥ 200 µM	≥ 200 µM	≥ 200 µM	≥ 200 µM	≥ 200 µM	≥ 200 µM	≥ 200 µM	≥ 200 µM	0.606 nM	0.05 nM
CC(C)C[C@H](NC(=O)CNC(=O)[C@H](CO)NC(=O)[C@H](C)NC(=O)CC[C@H](NC(=O)CCCCCCCCCCCCCCCCCCC(=O)O)C(=O)O)C(=O)N[C@@H](CO)C(=O)N[C@H](C(=O)N[C@@H](C)C(=O)N[C@@H](C)C(=O)N[C@@H](CC(C)C)C(=O)NCC(=O)N[C@@H](CCCNC(=N)N)C(=O)N[C@@H](CC(C)C)C(=O)N[C@@H](CO)C(=O)N[C@H](C(=O)N[C@@H](CCC(=O)O)C(=O)N[C@@H](CC(C)C)C(=O)N[C@@H](Cc1cnc[nH]1)C(=O)N[C@@H](CCC(=O)O)C(=O)N[C@@H](CC(C)C)C(=O)N[C@@H](CCC(=O)O)C(=O)N[C@H](C(=O)N[C@@H](Cc1ccc(O)cc1)C(=O)N1CCC[C@H]1C(=O)N[C@@H](CCCNC(=N)N)C(=O)N[C@H](C(=O)N[C@@H](CCC(=O)O)C(=O)N[C@H](C(=O)NCC(=O)N[C@@H](CO)C(=O)NCC(=O)N[C@H](C(=O)N[C@@H](Cc1ccc(O)cc1)C(N)=O)[C@@H](C)O)[C@@H](C)O)[C@@H](C)O)[C@@H](C)O)[C@@H](C)O)[C@@H](C)O ({C20 diacid-γGlu}-ASGLSTAALGRLSTELHELETYPRTETGSGTY-NH2)	0.018 nM	0.067 nM	≥ 200 µM		≥ 200 µM		≥ 200 µM	≥ 200 µM	≥ 200 µM	≥ 200 µM	0.431 nM	0.054 nM
CC(C)C[C@H](NC(=O)[C@H](C)NC(=O)[C@H](C)NC(=O)[C@@H](NC(=O)[C@H](CO)NC(=O)[C@H](CC(C)C)NC(=O)[C@H](CCC(=O)O)NC(=O)[C@H](CO)NC(=O)[C@H](C)NC(=O)[C@H](C)NC(=O)[C@H](CCC(=O)O)NC(=O)CC[C@H](NC(=O)CCCCCCCCCCCCCCCCCCC(=O)O)C(=O)O)[C@@H](C)O)C(=O)NCC(=O)N[C@@H](CCCNC(=N)N)C(=O)N[C@@H](CC(C)C)C(=O)N[C@@H](CO)C(=O)N[C@@H](C)C(=O)N[C@@H](CCC(=O)O)C(=O)N[C@@H](CC(C)C)C(=O)N[C@@H](Cc1cnc[nH]1)C(=O)N[C@@H](CCC(=O)O)C(=O)N[C@@H](CC(C)C)C(=O)N[C@@H](C)C(=O)N[C@H](C(=O)N[C@@H](Cc1ccc(O)cc1)C(=O)N1CCC[C@H]1C(=O)N[C@@H](CCCNC(=N)N)C(=O)N[C@H](C(=O)N[C@@H](CCC(=O)O)C(=O)N[C@H](C(=O)NCC(=O)N[C@@H](CO)C(=O)NCC(=O)N[C@@H](CO)C(=O)N1CCC[C@H]1C(N)=O)[C@@H](C)O)[C@@H](C)O)[C@@H](C)O ({C20 diacid-γGlu}-EAASELSTAALGRLSAELHELATYPRTETGSGSP-NH2)	0.015 nM	0.113 nM	≥ 200 µM	≥ 200 µM	≥ 200 µM	≥ 200 µM	≥ 200 µM	≥ 200 µM	≥ 200 µM	≥ 200 µM	1.92 nM	0.017 nM

Continued, values first:

EC50 (Calcitonin receptor [1])	EC50 (Calcitonin receptor [2])	solubility at 18 h [3]	solubility at 18 h [4]	solubility at 18 h [5]	solubility at 18 h [6]	solubility at 18 h [7]	solubility at 18 h [8]	solubility at 18 h [9]	solubility at 18 h [10]	IC50 [11]	EC50 [12]	Compound
0.066 nM	0.031 nM	≥ 200 µM	≥ 200 µM	≥ 200 µM	≥ 200 µM	≥ 200 µM	≥ 200 µM	≥ 200 µM	≥ 200 µM	19.7 nM		CC(C)C[C@H](NC(=O)[C@H](CCCNC(=N)N)NC(=O)CNC(=O)[C@H](CC(C)C)NC(=O)[C@@H](NC(=O)[C@H](C)NC(=O)[C@@H](NC(=O)[C@@H](NC(=O)[C@H](CC(C)C)NC(=O)[C@H](CCC(=O)O)NC(=O)[C@H](CO)NC(=O)[C@H](C)NC(=O)CC[C@H](NC(=O)CCCCCCCCCCCCCCCCC(=O)O)C(=O)O)[C@@H](C)O)[C@@H](C)O)C(C)C)C(=O)N[C@@H](CCC(=O)O)C(=O)N[C@@H](C)C(=O)N[C@@H](CCC(=O)O)C(=O)N[C@@H](CC(C)C)C(=O)N[C@@H](Cc1cnc[nH]1)C(=O)N[C@@H](CCC(=O)O)C(=O)N[C@@H](CC(C)C)C(=O)N[C@H](C(=O)N[C@H](C(=O)N[C@@H](CC(C)C)C(=O)N1CCC[C@H]1C(=O)N[C@@H](CCCNC(=N)N)C(=O)N[C@H](C(=O)N[C@@H](CCC(=O)O)C(=O)N[C@H](C(=O)NCC(=O)N[C@H](C(=O)NCC(=O)N[C@H](C(=O)N1CCC[C@H]1C(N)=O)[C@@H](C)O)[C@@H](C)O)[C@@H](C)O)[C@@H](C)O)[C@@H](C)O)[C@@H](C)O ({C18 diacid-γGlu}-ASELTTAVLGRLEAELHELTTLPRTETGTGTP-NH2)
0.064 nM	0.05 nM									7.26 nM	0.187 nM	CC(C)C[C@H](NC(=O)[C@H](C)NC(=O)[C@H](C)NC(=O)[C@@H](NC(=O)[C@H](CO)NC(=O)[C@H](CC(C)C)NC(=O)[C@H](CCC(=O)O)NC(=O)[C@H](CO)NC(=O)[C@H](C)NC(=O)CC[C@H](NC(=O)CCCCCCCCCCCCCCCCCCC(=O)O)C(=O)O)[C@@H](C)O)C(=O)NCC(=O)N[C@@H](CCCNC(=N)N)C(=O)N[C@@H](CC(C)C)C(=O)N[C@@H](CO)C(=O)N[C@@H](C)C(=O)N[C@@H](CCC(=O)O)C(=O)N[C@@H](CC(C)C)C(=O)N[C@@H](Cc1cnc[nH]1)C(=O)N[C@@H](CCC(=O)O)C(=O)N[C@@H](CC(C)C)C(=O)N[C@@H](C)C(=O)N[C@H](C(=O)N[C@@H](Cc1ccc(O)cc1)C(=O)N1CCC[C@H]1C(=O)N[C@@H](CCCNC(=N)N)C(=O)N[C@H](C(=O)N[C@@H](CCC(=O)O)C(=O)N[C@H](C(=O)NCC(=O)N[C@@H](CO)C(=O)NCC(=O)N[C@@H](CO)C(=O)N1CCC[C@H]1C(=O)NCC(=O)O)[C@@H](C)O)[C@@H](C)O)[C@@H](C)O ({C20 diacid-γGlu}-ASELSTAALGRLSAELHELATYPRTETGSGSPG-OH)
